Data set [1] deals with RBL cells. The experiment in a line: TNF-α secretion of activated RBL cells. The format is cell-based, rat. As to conditions: activated RBL cells (FIG. 19G).
Data set [2] has as its system BMMC. Nature of the data set: Measurements of secreted mediators (ELISA) in activated BMMC. It counts as cell-based, mouse. The following applies: for Granzyme-B secretion: BMMC (data not shown); for cytokine secretion: IL-6 / cytokine secretion: TNF-α: immunologically activated BMMC, 6 μM (FIG. 21C). Here is the method: 1×106 BMMC were immunologically activated as described above. After IgE incubation, the cells were washed three times in PBS and incubated with DNP-albumin (Sigma-Aldrich) for 30 mM in complete growth medium. Supernatant was collected and Granzyme B and TNFα content were measured using ELISA Kits (eBioscience).
Background: An ELISA detects its analyte on a solid surface through an enzyme-linked reagent.

Data set [3] relates to BMMC. Nature of the data set: β-Hexosaminidase release assay (degranulation) in BMMC. It counts as cell-based, mouse. The following applies: activated BMMC, 6 μM. Here is the method: (§1) RBL-2H3 cells were maintained in RPMI 1640 medium as previously described1. Bone marrow was isolated from 5-6 week-old mice, and BMMC were cultured in RPMI medium supplemented with 20 ng/ml interleukin-3 (IL-3) and 20 ng/ml SCF as previously described2, 3. Cells were generally grown for a minimum of 4 weeks and used when >90% of the population expressed FcεRI. BMMC and RBL cells were sensitized first with anti-DNP IgE monoclonal antibody (SPE-7; Sigma-Aldrich Corp.) and then challenged with DNP-BSA (Sigma-Aldrich Corp.). IgE antibody was centrifuged (18,000 g, 5 min) before use to remove aggregates. […] For glycolysis elimination cells were maintained in glucose-free RPMI supplemented with 10% dialyzed fetal calf serum and 5 mM galactose.
(§2) 1×104 RBL or 3×104 BMMC were immunologically activated as described above. After IgE incubation, the cells were washed three times with 5 mL of degranulation buffer (NaCl 130 mM, KCl 5 mM, Glucose 5.6 mM, MgCl2 1 mM, CaCl2 1.2 mM, Hepes pH 7.4 10 mM, BSA 0.1%) and resuspended in 200 μL of the same buffer with DNP-albumin for 30 min. The release of β-hexosaminidase was determined in triplicates in a 96-well plate. Aliquots (20 μL) of supernatants and cell lysates were incubated for 30 minutes with 100 μL of substrate solution (1.3 mg/mL p-nitrophenyl-b-D-2-acetamido-2-deoxyglucopyranozide in 0.1 M citrate [pH 4.51]). The reaction was stopped by the addition of 200 μL of 0.2 M glycine (pH 10.7). The plate OD was read in an enzyme-linked immunosorbent assay (ELISA) reader at a wavelength of 405 nm Percent release values for each experimental condition were calculated3.

The next data set deals with CBMC. Nature of the data set: β-Hexosaminidase release assay (degranulation) in human cord blood-derived mast cells. The format is cell-based. As to conditions: 12 μM, 3 h incubation.
For the next data set, the system named is plasma histamine. Nature of the data set: In vivo histamine release assay, passive systemic IgE-mediated anaphylaxis model. As to conditions: 3.5 h before DNP-BSA challenge. Here is the method:
C3H 6-7 week male and female WT mice were purchased from Jackson Lab (Cambridge, Mass., USA), mice were fed a regular diet and with drinking water ad libitum. Experiments were approved by The Hebrew University Ethical Committee for Animal Experimentation.
WT C3H mice were sensitized with 3 μg murine IgE anti-DNP mAb SPE-7 by means of intravenous injection in the tail vein. Twenty-four hours later, mice were treated with 40 mg/kg of static dissolved in corn oil or corn oil alone for 2.5 hours, then mice were challenged with i.v. injection of DNP-BSA (250 μg per mouse). 100 μl of blood was collected immediately and added to an equal volume of pre-cold Alsever's Solution. Blood was centrifuged 2000 g for […] and plasma supernatant was collected. Plasma histamine levels were determined by using competitive ELISA (IBL International Gmbh, Hamburg, Germany).
STAT3's role in vivo was investigated by evaluating the response to allergic stimulation in Stattic-treated mice. The passive systemic IgE-mediated anaphylaxis model was used. Mice were injected (i.v.) with IgE anti-DNP. Twenty four hours later they were injected (i.p.) with Stattic (80 mg/kg) or corn oil which was used as control. Three and a half hours later the mice were challenged with DNP-BSA for 1.5 minutes. Plasma was collected, and histamine levels were measured by competitive ELISA. Histamine secretion in Stattic-treated mice was 43% less than that in control mice (FIG. 17, p<0.05).
Mitocur-1/3 effectiveness in vivo was investigated by evaluating the response to allergic stimulation in Mitocur-1/3-treated mice. The passive systemic IgE-mediated anaphylaxis model was used. Mice were injected (i.v.) with IgE anti-DNP. Twenty four hours later they were injected (i.p.) with Mitocur-1 (80 mg/kg) and Mitocur-3 (40 mg/kg). Corn oil was used as control. Three and a half hours later the mice were challenged with DNP-BSA for 1.5 minutes. Plasma was collected, and histamine levels were measured by competitive ELISA. Histamine secretion in Mitocur-1-treated mice was 35% less than that in control mice (FIG. 22A, p<0.05).

In data set [4] the test system is caspase3. The experiment in a line: Western blot of cleaved caspase3 in BMMC. The format is cell-based, mouse. As to conditions: 6 μM (FIG. 21D).
Another data set relates to c-myc. Nature of the data set: Western blot of c-myc (STAT3 target gene) in RBL cells. As to conditions: 3 h; for c-myc levels compared to control: 6 μM; for c-myc levels: concentrations higher than 6 μM. The format is cell-based, rat. On the procedure: (§3) RBL cells and mitochondrial pellets were lysed by the addition of lysis buffer (50 mM Tris-HCl pH 7.4, 1% Nonidet P-40, 0.25% Na-deoxycholate, 150 mM NaCl, 1 mM EDTA, 1 mM PMSF) supplemented with 15 μl protease inhibitor (Sigma-Aldrich). Cells and mitochondria were vortexed and incubated on ice for 15 min. The lysates were then centrifuged at 14,000 g for 15 min and pellets were discarded. The protein concentration of each sample was determined using Bradford Reagent (Sigma-Aldrich). Proteins were resolved by 10-15% SDS-PAGE under reducing conditions and transferred to polyvinylidene difluoride membranes (Millipore Billerica, Ma). The membranes were incubated in 5% fat-free milk and TBST (10 mM Tris-HCl, pH 7.4, 150 mM NaCl, 0.1% Tween 20) for 1 h and then in 5% BSA and TBST containing various dilutions of primary Abs for 18 h at 4° C. The membranes were washed three times with TBST for 5 mM before and after each incubation with secondary Ab. The proteins were detected with the appropriate secondary Ab (1 h; room temperature) coupled to HRP-conjugated goat anti-rabbit or anti-mouse Ab and visualized by chemiluminescence according to the manufacturer's instructions (Pierce).
The levels of cleaved caspase3 were measured as an indicator of apoptosis, which could occur as a result of inhibiting STAT3's target genes. […] Since higher concentrations reduced the levels of c-myc and enhanced the levels of cleaved caspase3, the inventors concluded that 6 μM Mitocur-1/3 or lower would be suitable for the present invention. As these molecules are intended to be used in a time frame greater than 3 h, RBL cells were incubated with the same concentrations of Mitocur-1/3 for 24 h and the levels of cleaved caspase3 were determined by Western blot analysis.

The subject of data set [5] is RBL cells. Nature of the data set: ATP determination (ATPLite luminescence) in RBL cells. It counts as cell-based, rat. As to conditions: RBL cells. Here is the method: as §1
ATP levels were measured using the ATPLite luminescence-based assay according to the manufacturer's instructions (Perkin Elmer, Waltham, Mass., USA).
Background: Cellular ATP, detected with luciferase, serves as a proxy for viable cell number.

The subject of data set [6] is caspase3. The experiment in a line: Western blot of caspase3 / cleaved caspase3 (apoptosis) in RBL cells. The format is cell-based, rat. As to conditions: RBL cells. On the procedure: as §3
A general note: Immunoblotting shows a protein as a band on a membrane.

Data set [7] has as its system RBL cells. Nature of the data set: β-Hexosaminidase release assay (degranulation) in RBL cells. It counts as cell-based, rat. The following applies: for Emax at 6 µM: Rattus norvegicus, 3 h incubation, read-out: maximum effect, reduction of degranulation. Here is the method:
as §1, §2

Data set [8] has as its system RBL cells. Nature of the data set: Oxygen consumption (Seahorse XF analyzer) in RBL cells. The format is cell-based, rat. The following applies: RBL cells, 3 h. Here is the method:
as §1
Oxygen consumption rate (OCR) was measured using an XF24 extracellular flux analyzer (Seahorse Biosciences, North Billeric, Mass., USA).

For data set [9] the following is noted: cited from earlier work.
The mark [10] stands for this setting: concentrations higher than 6 μM, 3 h.

Here are results for 3 compounds from US20160113900A1, “INHIBITORS OF MITOCHONDRIAL STAT3 AND USES THEREOF IN MODULATION OF MAST CELL EXOCYTOSIS” (Yissum Research Development Company of the Hebrew …, priority 2014, published 2016).

For orientation: melting point means the temperature, or range, at which the solid turns liquid. `O=C(/C=C/c1ccc(OCCC[P+](c2ccccc2)(c2ccccc2)c2ccccc2)cc1)CC(=O)/C=C/c1ccc(OCCC[P+](c2ccccc2)(c2ccccc2)c2ccccc2)cc1` [Mitocur-3, 1,7-{4-[3-(triphenylphosphonium)propoxy]phenyl}hepta-1,6-diene-3,5-dione dichloride]: the melting point was in the range of 145 to 160 °C. Also, the TNF-α secretion entry with RBL cells [1] is recorded as “completely abolished”. For the same compound, in the data set on BMMC [2], the Granzyme-B secretion entry is reported as “abolished”, the “cytokine secretion: IL-6” value is recorded as “totally abolished” and the “cytokine secretion: TNF-α” value is “totally abolished”. In addition, in the data set with BMMC [3] (3 h incubation), the degranulation levels result was “reduced”. In the data set with BMMC [3] (24 h incubation), the degranulation levels entry is on record as “reduced”. In addition, the degranulation levels entry with CBMC was “successfully reduced”. Moreover, in the data set on plasma histamine (mice, Mitocur-3 40 mg/kg i.p.), the “decrease in histamine secretion” value is on record as 32.4%. For the same compound, the “cleaved caspase3 levels” value in the data set on caspase3 [4] is listed as “no change”. Moreover, in the data set on c-myc, the “c-myc levels compared to control” value is reported as “no change” and the c-myc levels result was “reduced”. The ATP levels entry in the data set with RBL cells [5] (100 μM, 3 h (data not shown)) is recorded as “reduced”. In addition, the ATP levels entry in the data set with RBL cells [5] (6-50 μM, 3 h) is on record as “No significant reduction”. In addition, the cleaved caspase levels entry in the data set with caspase3 [6] (6 μM, 3 h) was “no change”. Besides, in the data set with caspase3 [6] (6 μM, 24 h), the “cleaved caspase3 levels” value is “slight change”. The “cleaved caspase3 levels” value in the data set with caspase3 [6] (setting [10]) is “enhanced”. Further, the Emax at 6 µM in the data set on RBL cells [7] (RBL cells) was over 50%. In the data set with RBL cells [8] (100 μM), the oxygen consumption entry was “reduced”. Also, in the data set with RBL cells [8] (6-50 μM), the oxygen consumption entry is “No significant reduction”.
Consider `COc1cc(/C=C/C(=O)CC(=O)/C=C/c2ccc(OCCC[P+](c3ccccc3)(c3ccccc3)c3ccccc3)c(OC)c2)ccc1OCCC[P+](c1ccccc1)(c1ccccc1)c1ccccc1` [Mitocur-1, 1,7-Bis{3-methoxy-4-[3-(triphenylphosphonium)propoxy]-phenyl}hepta-1,6-diene-3,5-dione dichloride], for which the melting point fell in the range of 130 to 140 °C. In addition, the TNF-α secretion result in the data set on RBL cells [1] is “completely abolished”. Moreover, in the data set on BMMC [2], the Granzyme-B secretion result is reported as “abolished”, the “cytokine secretion: IL-6” value is “totally abolished” and the “cytokine secretion: TNF-α” value is “totally abolished”. In addition, the degranulation levels entry in the data set on BMMC [3] (3 h incubation) is on record as “reduced”. In addition, the degranulation levels result in the data set on BMMC [3] (24 h incubation) is “reduced”. Also, the “histamine secretion less than in control mice” value with plasma histamine (Mitocur-1 80 mg/kg i.p.) is 35%. Also, the “cleaved caspase3 levels” value with caspase3 [4] is on record as “no change”. Further, in the data set with c-myc, the “c-myc levels compared to control” value is “no change” and the c-myc levels entry is listed as “reduced”. Besides, in the data set with RBL cells [5] (100 μM, 3 h (data not shown)), the ATP levels entry is recorded as “reduced”. For the same compound, the ATP levels result with RBL cells [5] (6-50 μM, 3 h) is “No significant reduction”. The cleaved caspase levels entry in the data set on caspase3 [6] (6 μM, 3 h) is “no change”. Moreover, the “cleaved caspase3 levels” value with caspase3 [6] (setting [10]) is reported as “enhanced”. The Emax at 6 µM in the data set with RBL cells [7] (RBL cells) is over 50%. For the same compound, in the data set with RBL cells [8] (100 μM), the oxygen consumption result is recorded as “reduced”. The oxygen consumption entry with RBL cells [8] (6-50 μM) is given as “No significant reduction”.
Consider `COc1cc(/C=C/C(=O)CC(=O)/C=C/c2ccc(O)c(OC)c2)ccc1O` [curcumin, (1E,6E)-1,7-Bis(4-hydroxy-3-methoxyphenyl)-1,6-heptadiene-3,5-dione], for which the “degranulation (β-hexosaminidase release)” value in the data set with RBL cells [7] (RBL cells, curcumin 12.5, 25, 50 and 100 μM, 10 min (FIG. 19A)) was “significantly reduced”. Besides, in the data set on RBL cells [7] (activated RBL cells, 10 min incubation with curcumin (FIG. 8)), the degranulation levels entry is “completely abolished”. In addition, in data set [9], the “pKa of the two phenolic OH groups” value is 10-10.5.
